In US8883789B2, “Piperazine derivatives and their use as positive allosteric modulators of mGluR5 receptors” (Boehringer Ingelheim International GmbH, priority 2011, dated 2014):
pEC50: −log10 of the molar value.

Target: T1, human recombinant mGluR5 (Homo sapiens, UniProt P41594)
T1 construct: expressed in transfected cells; hygromycin and geneticin selection
Assay: positive modulation of mGluR5, calcium based FLIPR assay
Conditions: HEK 293 cell line expressing human recombinant mGluR5; Ca2+ peak height after glutamate at approximately 5% basal stimulation; nonlinear regression
Protocol: The positive modulation of mGluR5 is measured in a HEK 293 cell line expressing human recombinant mGluR5 and is detected with calcium based FLIPR assay. The cells are cultured with DMEM supplemented with 10% FCS, 2 μg/mL tetracycline, 100 μg/mL hygromycin and 500 μg/mL geneticin. The cell culture media is exchanged for tetracycline-free cell culture media 3-7 days before the assay. One day before the assay the cell culture medium is exchanged to DMEM without glutamine and phenol red and supplemented with 10% FCS, 100 μg/mL hygromycin and 500 μg/mL geneticin. On the assay day, the medium of the subconfluent cultures is removed and the cells are detached by addition of 2.5 ml EDTA (0.02%) per 175 cm2 culture flask for 1 minute. The cells are resuspend in Ringer solution (140 mM NaCl, 5 mM KCl, 2.5 mM CaCl2, 1.5 mM MgCl2, 5 mM Glucose, 10 mM Hepes; adjusted to pH 7.4 with NaOH), pooled and Ringer solution added to adjust the volume to 50 mL. The cell suspension is centrifuged for […] at 1500 U/min (425 g). The supernatant is removed and the cells washed a second time with 50 ml fresh Ringer solution and centrifuged again as before. The supernatant is again removed and the pellet resuspended in Ringer solution to 1,000,000 cells/ml (1×10^6 cells/mL). The cells are plated onto BD BioCoat Poly-D-Lysine 384 well plates (20.000 cells/well; 20 μl/well). The lid covered plates are then incubated until use at 37° C./10% CO2. For dye loading, 20 μl of Calcium-4 assay kit solution (prepared according to the manufacturer's description in Ringer solution) are added to the cells and the plates are incubated for 80 min 37° C. and then 10 min at room temperature.
Controls, Compound Dilution and Assay Execution:
Each assay plate contained wells with “high” and “low” controls:
Low controls 1% DMSO/ringer solution+basal glutamate activation (defined as 100% CTL).
High controls 10 μM CDPPB+basal glutamate activation (defined as 200% CTL).
Test compounds are dissolved and diluted in DMSO to 100-fold the desired concentrations. In a second step, the compounds are diluted in Ringer solution such that the compounds are 4-fold more concentrated than the desired final assay concentration. The final DMSO concentration was 1%.
20 μl of each compound solution are then transferred to the assay plate and the Ca2+ kinetic is measured to determine any intrinsic compound activity. After 5 min incubation in the FLIPR device, the second stimulation with 20 μl of glutamate in Ringer solution (glutamate concentration adjusted to approximately 5% basal stimulation of the maximal possible glutamate effect) is added and the kinetic Ca2+ response of the wells was measured for the modulation effect.
The peak height of the Ca release related fluorescence signal (9-66) is used for the EC50.
The EC50 of the modulation is calculated over a nonlinear regression with GraphPad Prism (Table 1).

T1 sequence (P41594 21-1212): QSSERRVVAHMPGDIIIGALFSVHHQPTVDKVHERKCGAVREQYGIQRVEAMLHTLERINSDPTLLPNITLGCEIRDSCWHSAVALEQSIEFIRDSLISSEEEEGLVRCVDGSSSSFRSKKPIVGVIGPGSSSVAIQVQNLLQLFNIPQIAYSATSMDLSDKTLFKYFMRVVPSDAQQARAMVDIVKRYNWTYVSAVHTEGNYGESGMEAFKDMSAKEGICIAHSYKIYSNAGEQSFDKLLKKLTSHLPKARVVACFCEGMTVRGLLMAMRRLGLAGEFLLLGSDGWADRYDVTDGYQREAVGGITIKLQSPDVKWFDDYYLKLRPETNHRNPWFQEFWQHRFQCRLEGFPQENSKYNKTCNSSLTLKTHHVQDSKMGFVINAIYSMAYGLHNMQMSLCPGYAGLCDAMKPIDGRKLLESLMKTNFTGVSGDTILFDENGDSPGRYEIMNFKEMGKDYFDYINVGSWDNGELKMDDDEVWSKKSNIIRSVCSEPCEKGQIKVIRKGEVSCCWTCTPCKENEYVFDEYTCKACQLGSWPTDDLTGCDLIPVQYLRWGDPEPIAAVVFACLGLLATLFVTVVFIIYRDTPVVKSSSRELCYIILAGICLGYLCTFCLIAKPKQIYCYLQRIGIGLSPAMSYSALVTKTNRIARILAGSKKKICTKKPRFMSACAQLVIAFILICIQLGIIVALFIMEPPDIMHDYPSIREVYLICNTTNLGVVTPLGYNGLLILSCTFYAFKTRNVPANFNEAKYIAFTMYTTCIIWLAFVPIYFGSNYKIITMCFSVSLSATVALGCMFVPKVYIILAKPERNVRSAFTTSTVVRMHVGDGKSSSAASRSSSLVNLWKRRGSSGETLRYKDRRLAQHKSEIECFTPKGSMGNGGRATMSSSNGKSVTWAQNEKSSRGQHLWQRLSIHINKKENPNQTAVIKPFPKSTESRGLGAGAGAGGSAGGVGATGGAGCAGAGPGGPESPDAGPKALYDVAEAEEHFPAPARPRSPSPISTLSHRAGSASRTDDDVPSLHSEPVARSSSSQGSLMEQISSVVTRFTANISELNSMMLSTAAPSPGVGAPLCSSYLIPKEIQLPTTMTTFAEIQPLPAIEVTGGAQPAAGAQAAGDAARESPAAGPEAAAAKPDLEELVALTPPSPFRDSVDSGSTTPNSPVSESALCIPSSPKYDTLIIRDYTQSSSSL

| pEC50 | SMILES |
| --- | --- |
| 7.41 | Cc1oc2ccc(Br)cc2c1C(=O)N1CCN(C(=O)c2ncn(-c3cccc(F)c3)n2)C(C)(C)C1 [Example 1, [4-(5-Bromo-2-methyl-benzofuran-3-carbonyl)-2,2-dimethyl-piperazin-1-yl]-[1-(3-fluoro-phenyl)-1H-[1,2,4]triazol-3yl]-methanone] |
| 7.17 | Cc1oc2ccc(F)cc2c1C(=O)N1CCN(C(=O)c2ncn(-c3cccc(F)c3)n2)C(C)(C)C1 [Example 2] |
| 7.07 | CC1(C)CN(C(=O)c2cc(Cl)c3c(c2)OCCO3)CCN1C(=O)c1ncn(-c2cccc(F)c2)n1 [Example 3] |
| 7.00 | COc1cccc(C(=O)N2CCN(C(=O)c3ncn(-c4cccc(F)c4)n3)C(C)(C)C2)n1 [Example 4] |
| 6.88 | Cc1oc2ccccc2c1C(=O)N1CCN(C(=O)c2ncn(-c3cccc(F)c3)n2)C(C)(C)C1 [Example 5] |
| 6.71 | Cc1c(C(=O)N2CCN(C(=O)c3ncn(-c4cccc(F)c4)n3)C(C)(C)C2)n(C)c2ccccc12 [Example 6] |
| 7.30 | COc1cccc(C(=O)N2CCN(C(=O)c3ncn(-c4cccc(C)c4)n3)C(C)(C)C2)n1 [Example 7, [4-(6-Methoxy-pyridine-2-carbonyl)-2,2-dimethyl-piperazin-1-yl]-[1-m-tolyl-1H-[1,2,4]triazol-3yl]-methanone] |
| 7.28 | Cc1cccc(-n2cnc(C(=O)N3CCN(C(=O)c4cc(Br)c(Br)o4)CC3(C)C)n2)c1 [Example 8] |
| 7.28 | Cc1cccc(-n2cnc(C(=O)N3CCN(C(=O)c4cc(Cl)c5c(c4)OCCO5)CC3(C)C)n2)c1 [Example 9] |
| 7.02 | Cc1cccc(-n2cnc(C(=O)N3CCN(C(=O)c4c(C)oc5ccccc45)CC3(C)C)n2)c1 [Example 10] |
| 7.72 | CC(C)c1cccc(C(=O)N2CCN(C(=O)c3ncn(-c4cccc(Cl)c4)n3)C(C)(C)C2)c1 [Example 11, [1-(3-Chloro-phenyl)-1H-[1,2,4]-triazol-3-yl]-[4-(3-isopropyl-benzoyl)-2,2-dimethyl-piperazin-1-yl]methanone] |
| 7.72 | COc1cc(Br)cc(C(=O)N2CCN(C(=O)c3ncn(-c4cccc(Cl)c4)n3)C(C)(C)C2)n1 [Example 12] |
| 7.66 | CC1(C)CN(C(=O)c2cccc(C(F)(F)F)n2)CCN1C(=O)c1ncn(-c2cccc(Cl)c2)n1 [Example 13] |
| 7.60 | CC1(C)CN(C(=O)c2cccc(C(F)(F)F)c2)CCN1C(=O)c1ncn(-c2cccc(Cl)c2)n1 [Example 14] |
| 7.52 | CC1(C)CN(C(=O)c2cccc(Br)c2)CCN1C(=O)c1ncn(-c2cccc(Cl)c2)n1 [Example 15] |
| 7.39 | CC1(C)CN(C(=O)c2cccc(C3CC3)n2)CCN1C(=O)c1ncn(-c2cccc(Cl)c2)n1 [Example 16] |
| 7.35 | COc1cc(Cl)cc(C(=O)N2CCN(C(=O)c3ncn(-c4cccc(Cl)c4)n3)C(C)(C)C2)n1 [Example 17] |
| 7.32 | COc1cccc(C(=O)N2CCN(C(=O)c3ncn(-c4cccc(Cl)c4)n3)C(C)(C)C2)n1 [Example 18] |
| 7.29 | CC1(C)CN(C(=O)c2cc(Cl)c3c(c2)OCCO3)CCN1C(=O)c1ncn(-c2cccc(Cl)c2)n1 [Example 19] |
| 7.28 | CCCOc1cccc(C(=O)N2CCN(C(=O)c3ncn(-c4cccc(Cl)c4)n3)C(C)(C)C2)c1 [Example 20] |
| 7.21 | COc1nc(C(=O)N2CCN(C(=O)c3ncn(-c4cccc(Cl)c4)n3)C(C)(C)C2)cc2cc(F)ccc12 [Example 21] |
| 7.24 | COc1cc(C)cc(C(=O)N2CCN(C(=O)c3ncn(-c4cccc(Cl)c4)n3)C(C)(C)C2)n1 [Example 22] |
| 7.24 | CC1(C)CN(C(=O)c2cccc(C3(F)COC3)c2)CCN1C(=O)c1ncn(-c2cccc(Cl)c2)n1 [Example 23] |
| 7.21 | CC1(C)CN(C(=O)c2ccc3ccccc3c2)CCN1C(=O)c1ncn(-c2cccc(Cl)c2)n1 [Example 24] |
| 7.21 | CC1(C)CN(C(=O)c2cc(Br)c(Br)o2)CCN1C(=O)c1ncn(-c2cccc(Cl)c2)n1 [Example 25] |

| pEC50 | SMILES |
| --- | --- |
| 7.14 | CC1(C)CN(C(=O)c2cccc(-c3nccs3)c2)CCN1C(=O)c1ncn(-c2cccc(Cl)c2)n1 [Example 26] |
| 7.10 | CC1(C)CN(C(=O)c2ccc(Cl)c(Cl)c2)CCN1C(=O)c1ncn(-c2cccc(Cl)c2)n1 [Example 27] |
| 7.00 | CC1(C)CN(C(=O)c2cccc(-c3cnco3)c2)CCN1C(=O)c1ncn(-c2cccc(Cl)c2)n1 [Example 28] |
| 6.96 | CC1(C)CN(C(=O)c2cc(Cl)cc(C(F)(F)F)c2)CCN1C(=O)c1ncn(-c2cccc(Cl)c2)n1 [Example 29] |
| 6.94 | CC1(C)CN(C(=O)c2cccc(-c3ccncc3)c2)CCN1C(=O)c1ncn(-c2cccc(Cl)c2)n1 [Example 30] |
| 6.80 | COc1ccc2c(OC)nc(C(=O)N3CCN(C(=O)c4ncn(-c5cccc(Cl)c5)n4)C(C)(C)C3)cc2c1 [Example 31] |
| 6.75 | COc1cc2cc(C(=O)N3CCN(C(=O)c4ncn(-c5cccc(Cl)c5)n4)C(C)(C)C3)nc(OC)c2cc1OC [Example 32] |
| 6.69 | CC1(C)CN(C(=O)c2cccc(C#N)n2)CCN1C(=O)c1ncn(-c2cccc(Cl)c2)n1 [Example 33] |
| 6.66 | COCCOc1nc(C(=O)N2CCN(C(=O)c3ncn(-c4cccc(Cl)c4)n3)C(C)(C)C2)cc2ccccc12 [Example 34] |
| 6.46 | CC1(C)CN(C(=O)c2cc3ccccc3cn2)CCN1C(=O)c1ncn(-c2cccc(Cl)c2)n1 [Example 35] |
| 6.42 | Cc1cc(Cl)cc(C(=O)N2CCN(C(=O)c3ncn(-c4cccc(Cl)c4)n3)C(C)(C)C2)n1 [Example 36] |
| 6.41 | CC1(C)CN(C(=O)c2cccc(OC(F)(F)F)c2)CCN1C(=O)c1ncn(-c2cccc(Cl)c2)n1 [Example 37] |
| 6.39 | COCc1cccc(C(=O)N2CCN(C(=O)c3ncn(-c4cccc(Cl)c4)n3)C(C)(C)C2)n1 [Example 38] |
| 6.38 | Cc1cccc(C(=O)N2CCN(C(=O)c3ncn(-c4cccc(Cl)c4)n3)C(C)(C)C2)n1 [Example 39] |
| 6.07 | COc1ccnc(C(=O)N2CCN(C(=O)c3ncn(-c4cccc(Cl)c4)n3)C(C)(C)C2)c1 [Example 40] |
| 6.70 | Cc1c(C(=O)N2CCN(C(=O)c3ncn(-c4cccc(Cl)c4)n3)C(C)(C)C2)oc2ccc(F)cc12 [Example 41] |
| 7.06 | COc1nc(C(=O)N2CCN(C(=O)c3ncn(-c4cccc(Cl)c4)n3)C(C)(C)C2)cc2ccccc12 [Example 42] |
| 7.10 | COc1cccc(C(=O)N2CCN(C(=O)c3ncn(-c4cccc(Cl)c4)n3)C(C)(C)C2)c1 [Example 43] |
| 6.87 | CN(C)c1cccc(C(=O)N2CCN(C(=O)c3ncn(-c4cccc(Cl)c4)n3)C(C)(C)C2)c1 [Example 44] |
| 7.27 | Cc1c(C(=O)N2CCN(C(=O)c3ncn(-c4cccc(Cl)c4)n3)C(C)(C)C2)oc2ccccc12 [Example 45] |
| 7.06 | COc1cc(C(=O)N2CCN(C(=O)c3ncn(-c4cccc(Cl)c4)n3)C(C)(C)C2)ccc1C [Example 46] |
| 6.74 | COc1ccc2c(C)c(C(=O)N3CCN(C(=O)c4ncn(-c5cccc(Cl)c5)n4)C(C)(C)C3)oc2c1 [Example 47] |
| 6.90 | CC1(C)CN(C(=O)c2cccc3c2OCO3)CCN1C(=O)c1ncn(-c2cccc(Cl)c2)n1 [Example 48] |
| 6.65 | CC1(C)CN(C(=O)c2cncc(C(F)(F)F)n2)CCN1C(=O)c1ncn(-c2cccc(Cl)c2)n1 [Example 49] |
